In US20040106148A1, “Polypeptides” (priority 2000, published 2004):

Experiments:
[1] = target: human TAPP1 C-terminal PH domain, mutant R212L (Arg212 to Leu), GST fusion (Homo sapiens, UniProt Q9HB21, R211L); test: Protein-lipid overlay; assay type: binding; details: FIG. 4B
Experimental: (§1) FIG. 4. Comparison of the phosphoinositide binding properties of the N-terminal and C-terminal PH domains of TAPP1 and TAPP2. The ability of wild type and mutant forms of full length (FL) and isolated N-terminal (NT) and C-terminal (CT) PH domains of TAPP1 and TAPP2 GST-fusion proteins to interact with phosphoinositides were analysed using a protein-lipid overlay. Serial dilutions of the indicated phosphoinositides (100 pmol, 50 pmol, 25 pmol, 12.5 pmol, 6.3 pmol, 3.1 pmol and 1.6 pmol) were spotted onto a nitrocellulose membrane which was then incubated with the indicated purified GST fusion proteins. The membranes were washed and the GST-fusion proteins bound to the membrane by virtue of their interactions with lipid were detected using a GST antibody. A representative experiment of three is shown. The isolated N-terminal PH domain of human TAPP1 comprises residues 1 to 147, the isolated C-terminal PH domain of human TAPP1 comprises residues 95 to 404, the isolated N-terminal PH domain of mouse TAPP2 comprises residues 1 to 131 and the isolated C-terminal PH of mouse TAPP2 comprises residues 174 to 425.
(§2) Protein-Lipid overlay. To assess the phosphoinositide binding properties of each PH domain, a protein-lipid overlay assay was performed using the GST fusion proteins as described previously. Briefly, 1 μl of lipid solution containing 1-100 pmol of phospholipids dissolved in a mixture of choroform:methanol:water (1:2:0.8) was spotted onto Hybond-C extra membrane and allowed to dry at room temperature for 1 h. The membrane was blocked in 3% (by mass) fatty acid-free BSA in TBST (50 mM Tris/HCl pH 7.5, 150 mM NaCl and 0.1% Tween-20 (by vol) for lh. The membrane was then incubated overnight at 4° C. with gentle agitation in the same solution containing 0.2 μg/ml of the indicated GST fusion protein. The membranes were washed 6 times over 30 min in TBST and then incubated for 1 h with 1/1000 dilution of anti-GST monoclonal antibody (Sigma). The membranes were washed as before, then incubated for 1 h with 1/5000 dilution of anti-mouse-HRP conjugate (Pierce). Finally, the membranes were washed 12 times over 1 h in TBST and the GST-fusion protein bound to the membrane by virtue of its interaction with phospholipid was detected by enhanced chemiluminescence.

[2] = target: human TAPP1 C-terminal PH domain, mutant W281L (Trp281 to Leu), GST fusion (Homo sapiens, UniProt Q9HB21, W280L); test: Protein-lipid overlay; assay type: binding; details: FIG. 4B
Experimental: as §1, §2

[3] = target: human TAPP1, full length, mutant R212L (Arg212 to Leu), GST fusion (Homo sapiens, UniProt Q9HB21, R211L); test: Protein-lipid overlay; assay type: binding; details: FIG. 4B
Experimental: as §1, §2

[4] = target: human TAPP1, full length, mutant R28L (Arg28 to Leu), GST fusion (Homo sapiens, UniProt Q9HB21, R28L); test: Protein-lipid overlay; assay type: binding; details: FIG. 4B
Experimental: as §1, §2

[5] = target: human TAPP1, full length, wild type, GST fusion (Homo sapiens, UniProt Q9HB21); test: Protein-lipid overlay; assay type: binding; details: FIG. 4A and Table 2
Experimental: as §1, §2

[6] = target: mouse TAPP2, full length, wild type, GST fusion (Mus musculus, UniProt Q9ERS5); test: Protein-lipid overlay; assay type: binding; details: FIG. 4C and Table 2
Experimental: as §1, §2

[7] = test system: GST-DAPP1; details: control; cited from earlier work

Chain of human TAPP1 C-terminal PH domain, mutant W281L (Trp281 to Leu), GST fusion (Q9HB21 95-404 W280L): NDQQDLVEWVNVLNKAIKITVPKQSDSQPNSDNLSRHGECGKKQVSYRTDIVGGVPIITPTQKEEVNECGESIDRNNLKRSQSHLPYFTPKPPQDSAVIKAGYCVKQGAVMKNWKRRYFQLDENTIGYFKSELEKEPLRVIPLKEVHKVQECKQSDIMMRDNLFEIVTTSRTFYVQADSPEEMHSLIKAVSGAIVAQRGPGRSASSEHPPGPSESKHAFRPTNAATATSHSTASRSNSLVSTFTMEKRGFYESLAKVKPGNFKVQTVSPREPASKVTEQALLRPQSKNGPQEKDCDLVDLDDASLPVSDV
Chain of human TAPP1 C-terminal PH domain, mutant R212L (Arg212 to Leu), GST fusion (Q9HB21 95-404 R211L): as the sequence (Q9HB21 95-404 W280L) above, with R117L, L186W counted along it
Chain of human TAPP1, full length, wild type, GST fusion (Q9HB21 whole entry, the tested form may be a part): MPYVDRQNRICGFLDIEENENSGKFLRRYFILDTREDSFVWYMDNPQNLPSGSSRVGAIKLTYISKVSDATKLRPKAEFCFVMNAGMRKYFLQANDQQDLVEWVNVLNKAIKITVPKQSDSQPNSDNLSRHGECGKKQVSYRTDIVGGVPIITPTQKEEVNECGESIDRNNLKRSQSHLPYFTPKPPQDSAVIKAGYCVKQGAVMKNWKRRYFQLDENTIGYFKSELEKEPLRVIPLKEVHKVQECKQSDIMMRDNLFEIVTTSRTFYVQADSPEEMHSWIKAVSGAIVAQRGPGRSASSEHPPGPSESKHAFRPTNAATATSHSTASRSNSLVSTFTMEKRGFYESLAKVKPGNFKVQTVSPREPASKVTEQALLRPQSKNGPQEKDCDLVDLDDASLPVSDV
Chain of human TAPP1, full length, mutant R212L (Arg212 to Leu), GST fusion (Q9HB21 whole entry R211L, the tested form may be a part): as the sequence (Q9HB21 whole entry, the tested form may be a part) above, with R211L counted along it
Chain of mouse TAPP2, full length, wild type, GST fusion (Q9ERS5 whole entry, the tested form may be a part): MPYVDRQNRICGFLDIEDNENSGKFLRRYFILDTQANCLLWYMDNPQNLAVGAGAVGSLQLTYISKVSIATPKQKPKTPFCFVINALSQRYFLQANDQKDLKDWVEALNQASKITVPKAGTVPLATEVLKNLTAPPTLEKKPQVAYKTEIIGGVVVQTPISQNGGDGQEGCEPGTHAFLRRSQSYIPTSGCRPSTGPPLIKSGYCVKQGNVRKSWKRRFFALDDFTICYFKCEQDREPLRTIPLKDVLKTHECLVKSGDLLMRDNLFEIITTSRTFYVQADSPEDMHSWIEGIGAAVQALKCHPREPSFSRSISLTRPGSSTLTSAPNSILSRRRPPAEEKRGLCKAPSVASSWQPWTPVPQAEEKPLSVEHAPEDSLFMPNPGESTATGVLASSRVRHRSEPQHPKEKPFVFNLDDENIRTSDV
Chain of human TAPP1, full length, mutant R28L (Arg28 to Leu), GST fusion (Q9HB21 whole entry R28L, the tested form may be a part): as the sequence (Q9HB21 whole entry, the tested form may be a part) above, with R28L counted along it

CCCCCCCCCCCCCCCC(=O)OC[C@H](COP(=O)(O)O[C@H]1[C@H](O)[C@@H](O)[C@H](OP(=O)(O)O)[C@@H](OP(=O)(O)O)[C@H]1O)OC(=O)CCCCCCCCCCCCCCC [PtdIns(3,4)P2]
effect of mutation on interaction [1]: abolished the interaction | effect of mutation on interaction [2]: abolished the interaction | effect of mutation on interaction [3]: abolished the interaction | effect of mutation on interaction [4]: did not affect the interaction | phosphoinositide binding [5]: interacted specifically | phosphoinositide binding [6]: interacted specifically | phosphoinositide binding [7]: binds
